In patent US6653309B1, “Inhibitors of IMPDH enzyme technical field of the invention” (Vertex Pharmaceuticals Incorporated, priority 1999, dated 2003):

Biological target: IMPDH human type II (Homo sapiens, UniProt P12268)
Assay: IMPDH Activity Inhibition Assay
Assay type: biochemical
Details: spectrophotometric NADH formation at 340 nm, 37° C., tight-binding equation of Henderson
Experimental: IMP dehydrogenase activity was assayed following an adaptation of the method first reported by Magasanik. [B. Magasanik et al., J. Biod. Chem., 226, p. 339 (1957), the disclosure of which is herein incorporated by reference]. Enzyme activity was measured spectrophotometrically, by monitoring the increase in absorbance at 340 nm due to the formation of NADH (ε340 is 6220 M^−1 cm^−1). The reaction mixture contained 0.1 M Tris pH 8.0, 0.1 M KCl, 3 mM EDTA, 2 mM DTT, […] and enzyme (IMPDH human type II) at a concentration of 15 to 50 nM. This solution is incubated at 37° C. for 10 minutes. The reaction is started by adding NAD to a final concentration of […] and the initial rate is measured by following the linear increase in absorbance at 340 nm for 10 minutes. For reading in a standard spectrophotometer (path length 1 cm) the final volume in the cuvette is 1.0 ml. The assay has also been adapted to a 96 well microtiter plate format; in this case the concentrations of all the reagents remain the same and the final volume is decreased to 200 μl.
For the analysis of inhibitors, the compound in question is dissolved in DMSO to a final concentration of 20 mM and added to the initial assay mixture for preincubation with the enzyme at a final volume of 2-5% (v/v). The reaction is started by the addition of NAD, and the initial rates measured as above. Ki determinations are made by measuring the initial, velocities in the presence of varying amounts of inhibitor and fitting the data using the tight-binding equation of Henderson (Henderson, P. J. F. (1972) Biochem. J. 127, 321].

Ki [µM]	Structure (SMILES)
< 10	COc1cc(NC(=O)c2cccc(CNC(=O)O[C@H]3CCOC3)c2)ccc1-c1cnco1 [Compound 102]
10 to 20	CSc1cccc(NC(=O)c2cc3ccccc3cc2O)c1 [Compound 173]
> 20	O=C(Nc1cccnc1)c1cc2ccccc2cc1O [Compound 304]
< 10	O=C(Nc1ccc(Cl)cc1)c1cc2ccccc2cc1O [Compound 161]
10 to 20	COc1cccc(OC)c1S(=O)(=O)Nc1ccc(C(C)(C)C)cc1 [Compound 311]
10 to 20	Cc1ccc(C(=O)Nc2ccccc2Oc2ccccc2)c(O)c1 [Compound 200]
10 to 20	O=C(Nc1ccccc1Cl)c1cc2ccccc2cc1O [Compound 155]
10 to 20	COc1ccccc1NC(=O)c1ccc2c(c1)OCO2 [Compound 134]
10 to 20	COc1ccc(OC)c(S(=O)(=O)Nc2ccc(-c3ncon3)cc2)c1 [Compound 316]
> 20	COc1ccc(C)cc1NC(=O)c1ccc2ccccc2c1O [Compound 191]
10 to 20	COc1ccc(OC)c(S(=O)(=O)Nc2ccccc2Cl)c1 [Compound 315]
10 to 20	COc1ccccc1NS(=O)(=O)c1ccc2ccccc2c1 [Compound 302]
< 10	COc1cc(Cl)c(C)cc1NC(=O)c1cc2ccccc2cc1O [Compound 181]
10 to 20	Cc1ccccc1NC(=O)c1cc2ccccc2cc1O [Compound 132]
> 20	O=C(Nc1ccccc1O)c1ccc2ccccc2c1O [Compound 192]
10 to 20	COc1ccccc1NS(=O)(=O)c1ccccc1O [Compound 322]
10 to 20	CCCC(=O)Oc1cc2ccccc2cc1C(=O)Nc1ccccc1OC [Compound 101]
> 20	O=C(Nc1ccccc1O)c1cc2ccccc2cc1O [Compound 190]
10 to 20	COc1ccccc1NC(=O)c1ccccc1 [Compound 133]
< 10	COc1cc(Cl)ccc1NC(=O)Sc1ccccc1O [Compound 305]
< 10	CCC(C)c1ccc(OC)c(NC(=O)c2cc3ccccc3cc2O)c1 (stereo not shown) [Compound 164]
< 10	CCCCC(=O)Oc1cc2ccc(Br)cc2cc1C(=O)Nc1ccccc1OC [Compound 153]
10 to 20	O=C(Nc1ccccc1C(F)(F)F)c1cc2ccccc2cc1O [Compound 128]
10 to 20	COc1cc(NC(=O)c2cc3ccccc3cc2O)cc(OC)c1 [Compound 188]

Ki [µM]	Structure (SMILES)
10 to 20	COc1ccc(C(C)(C)C)cc1NC(=O)c1cc2ccccc2cc1O [Compound 177]
< 10	COc1ccccc1NC(=O)c1ccccc1O [Compound 147]
10 to 20	COc1cccc(NC(=O)c2cc3ccccc3cc2O)c1OC [Compound 184]
10 to 20	Cc1ccc(NC(=O)c2cc3ccccc3cc2O)cc1 [Compound 121]
> 20	O=C(Nc1ccccc1O)c1cc(Br)ccc1O [Compound 203]
10 to 20	COc1ccc(OC)c(S(=O)(=O)Nc2cccc(C#N)c2)c1 [Compound 309]
< 10	CSc1ccc(NC(=O)c2cc3ccccc3cc2O)cc1 [Compound 175]
10 to 20	COc1ccc(OC)c(S(=O)(=O)Nc2ccc([N+](=O)[O-])cc2)c1 [Compound 308]
< 10	CCC(=O)Oc1cc2ccc(Br)cc2cc1C(=O)Nc1ccccc1OC [Compound 127]
< 10	CCCC(=O)Oc1cc2ccccc2cc1C(=O)Nc1ccc(C#N)c(OC)c1 [Compound 113]
10 to 20	COc1ccccc1NC(=O)c1ccc2ccccc2c1 [Compound 110]
< 10	COc1cc(NC(=O)Cc2cccc(CNC(=O)O[C@H]3CCOC3)c2)ccc1-c1cnco1 [Compound 325]
> 20	Cc1ccc(C(=O)Nc2ccccc2O)c(O)c1 [Compound 199]
10 to 20	COc1ccc(C)cc1NC(=O)Sc1ccccc1O [Compound 306]
10 to 20	COc1ccc(OC)c(S(=O)(=O)Nc2cccc(Cl)c2)c1 [Compound 320]
10 to 20	COc1ccc(Br)cc1S(=O)(=O)Oc1cc2ccccc2cc1N [Compound 318]
< 10	COc1cc(NC(=O)c2cc3ccccc3cc2O)c(OC)cc1Cl [Compound 170]
10 to 20	COc1ccccc1NC(=O)c1cccc(OC)c1O [Compound 157]
10 to 20	COc1ccccc1NC(=O)c1cc2ccccc2cc1N [Compound 142]
< 10	COc1ccccc1C(=O)Nc1cc2ccccc2cc1O [Compound 139]
10 to 20	COc1ccc(OC)c(S(=O)(=O)Nc2ccccc2[N+](=O)[O-])c1 [Compound 317]
10 to 20	O=C(Nc1ccc(OC(F)(F)F)cc1)c1cc2ccccc2cc1O [Compound 136]
< 10	O=C(Nc1ccc(Oc2ccccc2)cc1)c1cc2ccccc2cc1O [Compound 185]
> 20	COc1ccc(C)cc1NC(=O)c1cc(Br)ccc1O [Compound 202]

Ki [µM]	Structure (SMILES)
10 to 20	COc1ccc(NC(=O)c2cc3ccccc3cc2O)cc1 [Compound 120]
10 to 20	O=C(Nc1ccccc1Br)c1cc2ccccc2cc1O [Compound 129]
10 to 20	COc1ccc(S(=O)(=O)C(F)F)cc1NC(=O)c1cc2ccccc2cc1O [Compound 160]
10 to 20	COc1ccc(OC)c(S(=O)(=O)NCc2c(F)cccc2Cl)c1 [Compound 314]
< 10	COc1ccccc1N(C)Cc1cc2cc(Br)ccc2cc1O [Compound 151]
> 20	CCCC(=O)Oc1cc2ccccc2cc1C(=O)Nc1cccc(OC)c1 [Compound 116]
< 10	CCCC(=O)Oc1cc2ccccc2cc1C(=O)Nc1ccc(-c2cnco2)c(OC)c1 [Compound 114]
< 10	COc1ccccc1C(=O)Nc1cc2ccccc2cc1OC(=O)c1ccccc1OC [Compound 138]
10 to 20	O=C(Nc1ccc(F)cc1)c1cc2ccccc2cc1O [Compound 166]
10 to 20	O=C(Nc1ccc(Br)cc1)c1cc2ccccc2cc1O [Compound 131]
10 to 20	COc1cc(NC(=O)c2cc3ccccc3cc2O)ccc1C#N [Compound 125]
> 20	COc1cccc(NC(=O)c2cc3ccccc3cc2O)c1 [Compound 119]
10 to 20	COc1ccccc1NC(=O)c1cccc(-c2ccccc2)c1O [Compound 152]
< 10	O=C(Nc1ccccc1Oc1ccccc1)c1cc2ccccc2cc1O [Compound 183]
10 to 20	COc1ccc(OC)c(S(=O)(=O)Nc2cccc(Br)c2)c1 [Compound 313]
< 10	O=C(Nc1cccc(C(F)(F)F)c1)c1cc2ccccc2cc1O [Compound 123]
> 20	CCCC(=O)Oc1cc2ccccc2cc1C(=O)Nc1ccc(OC)cc1 [Compound 117]
10 to 20	COc1ccc(C(=O)Nc2ccccc2OC)c(O)c1 [Compound 150]
10 to 20	COc1ccccc1C(=O)Nc1ccccc1O [Compound 195]
> 20	O=C(Nc1ccc(F)cc1)Sc1ccccc1O [Compound 303]
< 10	O=C(Nc1ccc(C(F)(F)F)cc1)c1cc2ccccc2cc1O [Compound 124]
< 10	COc1cc(NC(=O)c2cccc(CCNC(=O)O[C@H]3CCOC3)c2)ccc1-c1cnco1 [Compound 109]
10 to 20	COc1ccccc1NC(=O)c1cc2cc(Br)ccc2cc1OC(C)=O [Compound 104]
10 to 20	COc1ccc(OC)c(S(=O)(=O)Nc2ccc(C#N)cc2)c1 [Compound 310]

Structure (SMILES)	Ki [µM]
COc1cc(NC(=O)Oc2cccc(CNC(=O)O[C@H]3CCOC3)c2)ccc1-c1cnco1 [Compound 326]	< 10
